Consider one substance from paper PMC4634863, “A Putative Non-Canonical Ras-Like GTPase from P. falciparum: Chemical Properties and Characterization of the Protein” (PLoS ONE, 2015).

The assay has as its target T1, PfG (Plasmodium falciparum, UniProt O77338).
T1 construct: gene PF3D7_0313500
T1 sequence (O77338 1-911): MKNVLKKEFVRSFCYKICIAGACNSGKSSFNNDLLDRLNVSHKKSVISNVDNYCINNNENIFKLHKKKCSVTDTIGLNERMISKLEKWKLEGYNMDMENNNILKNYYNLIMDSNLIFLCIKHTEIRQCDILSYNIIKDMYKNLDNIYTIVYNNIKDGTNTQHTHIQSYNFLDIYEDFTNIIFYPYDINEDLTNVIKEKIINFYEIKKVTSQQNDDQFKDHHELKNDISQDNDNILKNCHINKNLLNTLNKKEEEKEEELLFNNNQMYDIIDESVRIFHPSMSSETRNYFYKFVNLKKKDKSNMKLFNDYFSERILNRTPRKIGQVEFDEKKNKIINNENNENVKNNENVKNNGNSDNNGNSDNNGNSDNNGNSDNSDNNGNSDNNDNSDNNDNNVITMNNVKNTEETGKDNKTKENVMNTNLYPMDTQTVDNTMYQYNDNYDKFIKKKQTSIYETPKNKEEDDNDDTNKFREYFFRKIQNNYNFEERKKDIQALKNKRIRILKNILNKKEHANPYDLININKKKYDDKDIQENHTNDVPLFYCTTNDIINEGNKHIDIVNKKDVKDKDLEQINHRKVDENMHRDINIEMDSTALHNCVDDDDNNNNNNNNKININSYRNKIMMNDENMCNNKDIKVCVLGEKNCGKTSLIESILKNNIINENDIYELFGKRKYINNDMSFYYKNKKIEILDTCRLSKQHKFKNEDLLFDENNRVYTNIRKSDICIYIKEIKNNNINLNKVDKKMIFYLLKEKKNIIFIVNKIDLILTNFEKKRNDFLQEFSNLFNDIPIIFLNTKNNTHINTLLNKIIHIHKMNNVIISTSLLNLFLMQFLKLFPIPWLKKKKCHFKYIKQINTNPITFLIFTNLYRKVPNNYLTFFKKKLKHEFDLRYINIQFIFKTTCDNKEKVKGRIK
Description: fluorescence emission on binding, […] s time courses. The conditions noted are these: labelled compound; reversible nucleotide binding, unit printed as nmol (nM probably meant).

As to BODIPY® FL GTPγS, the “dissociation constant (Kd)” value was determined as 1.77 ± 0.36 nmol.
